Assay results published in patent publication US11564911B2, “Small molecule dual-inhibitors of TRPV4 and TRPA1 for sanitizing and anesthetizing” (Duke University, priority 2016, dated 2023).

Assays:
TRPV3 = target: T1, TRPV3 (Mus musculus, UniProt Q8K424); assay: Ca++ imaging in N2a cells over-expressing TRPV3; assay type: cell-based; conditions: 5 μM, mouse isoform in N2a cells
T1 construct: expressed in transfected cells; host or cells: N2a cells, eGFP co-transfected
Source text: (§1) Mean±SEM is shown, ≥100 cells per condition. […] Plot generated from averaged peak ΔCa++ concentration of […] per data-point.

TRPV1 = target: T2, TRPV1 (Mus musculus, UniProt Q704Y3); assay: Ca++ imaging in N2a cells over-expressing TRPV1; assay type: cell-based; conditions: 5 μM, mouse isoform in N2a cells
T2 construct: expressed in transfected cells; host or cells: N2a cells, eGFP co-transfected
T2 sequence (Q704Y3 whole entry, canonical isoform): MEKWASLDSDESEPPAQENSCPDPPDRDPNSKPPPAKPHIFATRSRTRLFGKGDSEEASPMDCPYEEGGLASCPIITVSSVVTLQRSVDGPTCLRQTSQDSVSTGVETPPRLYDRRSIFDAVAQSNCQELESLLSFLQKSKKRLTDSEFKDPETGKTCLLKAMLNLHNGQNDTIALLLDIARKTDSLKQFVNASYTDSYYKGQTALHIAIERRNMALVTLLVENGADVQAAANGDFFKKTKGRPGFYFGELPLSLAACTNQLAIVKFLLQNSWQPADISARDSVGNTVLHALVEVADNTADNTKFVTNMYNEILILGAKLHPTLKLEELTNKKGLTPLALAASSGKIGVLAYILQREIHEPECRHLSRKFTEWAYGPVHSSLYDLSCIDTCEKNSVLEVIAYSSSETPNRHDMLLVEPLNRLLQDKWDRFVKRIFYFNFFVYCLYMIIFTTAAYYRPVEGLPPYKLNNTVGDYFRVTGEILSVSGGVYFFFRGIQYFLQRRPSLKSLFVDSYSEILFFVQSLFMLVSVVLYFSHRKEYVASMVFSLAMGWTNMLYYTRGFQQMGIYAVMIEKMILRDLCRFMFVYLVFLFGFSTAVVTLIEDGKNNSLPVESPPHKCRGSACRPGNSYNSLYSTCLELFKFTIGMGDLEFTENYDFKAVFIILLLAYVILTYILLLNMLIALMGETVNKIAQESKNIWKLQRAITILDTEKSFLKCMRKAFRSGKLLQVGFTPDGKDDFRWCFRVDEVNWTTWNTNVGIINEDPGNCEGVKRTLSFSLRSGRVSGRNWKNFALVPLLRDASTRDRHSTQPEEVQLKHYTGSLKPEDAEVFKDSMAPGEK
Source text: as §1

[1] = system: Trpv4−/− mice, whisker-pad injection of formalin; assay: Formalin-evoked trigeminal irritant pain, systemic (i.p.) compound, Trpv4−/− mice; assay type: in vivo, mouse; conditions: 10 mg/kg i.p.; for late-phase pain behavior: vs vehicle / vs A967079 25 mg/kg
Description: FIGS. 31A-31D: 16-8 and 16-19 effectively attenuate formalin-evoked trigeminal irritant pain. (FIG. 31A) Time-course of nocifensive behavior in WT mice following whisker-pad injection of 4% formalin. The mice were pre-injected (i.p., 10 mg/kg; 15 min before formalin) with GSK205, 16-8 or 16-19. Note effective reduction of nocifensive behavior in the late “neural” phase by compounds 16-8, 16-19, not by GSK205. (FIG. 31B) Cumulative response binned into 3 phases: acute phase (0-5 min), interphase (5-15 min), and late “neural” phase (15-45 min). […] (FIG. 31C) As in (FIG. 31A), but also including Trpv4^−/− mice. Compounds were applied i.p. 15 min before formalin challenge, at 10 mg/kg except established TRPA1 blocker, A967079 (25 mg/kg). Previously-established attenuated nocifensive behavior in early and late phase in Trpv4^−/− mice was recapped, which was reduced further by TRPA1 blocker, A967079. (FIG. 31D) As in (FIG. 31B), plus inclusion of Trpv4^−/− mice. Robust effects of TRPA1-blocker, A967079, were mimicked equi-potently by 16-8 and 16-19 for early phase, and by 16-8 for late phase, partially by 16-19 for late phase. (FIG. 31A, FIG. 31C) show averaged behavioral metrics per time-point, bars in (FIG. 31B, FIG. 31D) represent mean±SEM; for (D) *p<0.05; #P<0.005, one-way ANOVA; for all panels n=5-8 mice/group.
Compounds were tested for their effect in reducing pain using an in vivo pain model in mice. For mouse formalin-evoked irritant behavior measurements, mice were well-fed, well-rested, and tested at the same time of day, at the same time-point of their circadian rhythm. They were allowed to acclimate to a plexiglas chamber for at least 30 min before testing, and received 10 μL subcutaneous injection of 4% of formalin (diluted from an aqueous solution of commercial 37% formaldehyde with normal saline (NS)) through a 30-gauge needle into the right whiskerpad, as further detailed in Luccarini et al. (J. Pain, 2006, 7, 908-914). Normal saline was used as control injection. After injection, mice were immediately placed back into the chamber and the rubbing behavior was recorded by a private consumer-type video-camera for a 45 min observation period. The recording time was divided into 9 blocks of 5 min, and a nociceptive score was determined per block by measuring the time that the animals spent rubbing the injected area predominantly with the ipsilateral fore-paw and rarely with hind-paw. This rubbing behavior with fore-paw is evoked by pain, which is distinct from itch behavior. Behavioral analysis was conducted by observers blinded to treatment.
We observed significant residual irritant-pain behavior in all phases of the formalin model in Trpv4^−/− mice, consistent with our previous report^13 (FIG. 31C,D). […] A reference TRPA1-inhibitory compound, A967079, was used at 25 mg/kg body weight as a positive control to inhibit TRPA1, based on a previous report^38. Reduction of pain behavior in Trpv4^−/− mice was striking, more than 50% in the late neural phase. […] We conclude that compound 16-8 also functions as a potent TRPA1-inhibitor in an in-vivo irritant pain model specifically designed to assess the contribution of TRPA1 to trigeminal irritant pain, and at least as potent as an established reference TRPA1-antagonistic compound.

human TRPV1 = target: T3, human TRPV1 (Homo sapiens, UniProt Q8NER1); assay: Ca2+ signal in N2a cells transfected with human TRPV1 (capsaicin); assay type: cell-based; conditions: 5 μM capsaicin stimulation
T3 construct: expressed in transfected cells; host or cells: N2a cells
T3 sequence (Q8NER1 whole entry): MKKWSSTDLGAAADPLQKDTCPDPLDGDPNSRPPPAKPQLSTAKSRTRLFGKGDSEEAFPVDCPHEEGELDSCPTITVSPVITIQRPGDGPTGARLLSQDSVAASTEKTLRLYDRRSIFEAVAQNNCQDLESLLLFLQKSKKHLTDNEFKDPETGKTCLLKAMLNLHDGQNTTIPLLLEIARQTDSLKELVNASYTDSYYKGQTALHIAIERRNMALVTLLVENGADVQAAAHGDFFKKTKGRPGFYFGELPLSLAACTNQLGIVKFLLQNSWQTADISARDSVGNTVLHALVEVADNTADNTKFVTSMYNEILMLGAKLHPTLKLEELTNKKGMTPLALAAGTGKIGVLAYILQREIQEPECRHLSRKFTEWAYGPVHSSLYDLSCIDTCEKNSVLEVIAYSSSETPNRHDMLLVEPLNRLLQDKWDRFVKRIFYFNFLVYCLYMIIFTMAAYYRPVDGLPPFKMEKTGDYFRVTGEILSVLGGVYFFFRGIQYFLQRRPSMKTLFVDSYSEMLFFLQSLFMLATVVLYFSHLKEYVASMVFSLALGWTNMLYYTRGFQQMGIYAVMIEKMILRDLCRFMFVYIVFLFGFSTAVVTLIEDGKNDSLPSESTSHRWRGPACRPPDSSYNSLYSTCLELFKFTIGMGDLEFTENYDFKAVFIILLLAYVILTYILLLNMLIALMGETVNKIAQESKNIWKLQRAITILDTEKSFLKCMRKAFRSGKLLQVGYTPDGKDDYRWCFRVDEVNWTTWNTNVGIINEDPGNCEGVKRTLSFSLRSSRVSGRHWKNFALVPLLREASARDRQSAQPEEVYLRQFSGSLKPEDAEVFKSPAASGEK
Description: (§2) Compounds were tested for their effect on TRPV1, TRPV2, and TRPV3. Methods were similar to those described in Example 15. Briefly, N2a cells were transfected with human TRPV1, TRPV2, or TRPV3. eGFP-transfection was used as control. For specific stimulation of TRPV1, 5 μM capsaicin was used. For stimulation of TRPV2, hypotonicity (260 mosmol/L) was used, based on previous reports of TRPV2 being osmotically responsive. N2a cells were not responsive to hypotonicity, and neither were control-transfected cells. For TRPV3-expressing cells, camphor (20% of a commercially available stock solution) was used. […] Stimulation and control protocols were applied as for TRPA1-expressing N2a cells as detailed above in Example 15.

human TRPV2 = target: T4, human TRPV2 (Homo sapiens, UniProt Q9Y5S1); assay: Ca2+ signal in N2a cells transfected with human TRPV2 (hypotonicity); assay type: cell-based; conditions: hypotonicity 260 mosmol/L
T4 construct: expressed in transfected cells; host or cells: N2a cells
T4 sequence (Q9Y5S1 whole entry): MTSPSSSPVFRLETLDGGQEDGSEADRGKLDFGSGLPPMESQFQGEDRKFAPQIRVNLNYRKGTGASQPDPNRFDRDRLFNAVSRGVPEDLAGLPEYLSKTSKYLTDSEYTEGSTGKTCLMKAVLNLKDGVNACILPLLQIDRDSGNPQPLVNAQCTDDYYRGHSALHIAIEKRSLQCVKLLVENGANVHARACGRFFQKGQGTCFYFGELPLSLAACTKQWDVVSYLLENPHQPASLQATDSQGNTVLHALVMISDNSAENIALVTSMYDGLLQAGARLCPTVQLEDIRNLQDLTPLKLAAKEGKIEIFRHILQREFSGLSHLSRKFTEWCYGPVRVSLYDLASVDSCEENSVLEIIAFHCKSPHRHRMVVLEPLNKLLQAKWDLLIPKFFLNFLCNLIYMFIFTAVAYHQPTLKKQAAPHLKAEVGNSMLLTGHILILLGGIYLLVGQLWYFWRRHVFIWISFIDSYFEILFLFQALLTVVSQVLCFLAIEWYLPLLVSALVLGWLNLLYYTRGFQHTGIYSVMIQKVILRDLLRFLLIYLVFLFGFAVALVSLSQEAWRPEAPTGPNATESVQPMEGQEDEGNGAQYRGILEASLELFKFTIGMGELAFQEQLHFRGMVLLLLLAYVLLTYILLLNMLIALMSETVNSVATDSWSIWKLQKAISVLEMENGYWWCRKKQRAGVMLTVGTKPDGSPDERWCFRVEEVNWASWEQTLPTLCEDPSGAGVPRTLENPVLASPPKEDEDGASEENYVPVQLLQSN
Description: as §2

[2] = Assessment of hepatic, renal and cardiac function in treated mice; assay type: in vivo, mouse; conditions: 10 mg/kg i.p., vs vehicle; for heart rate (EKG): over 1 h, at the 6 h time-point
Description: Mice were treated i.p. with compounds 16-8 and 16-19 (10 mg/kg). Hepatic and renal integrity were analyzed by alanine amino-transferase- and creatinine assays (Sigma), both relying on measurement of absorbance at λ=570 nm in 96-well micro-titerplates. 8 technical replicates per animal were performed.
For heart rate assessment in mice treated with 16-8 and 16-19, animals were fitted with two electrodes, one to the ear, via clip, one to the rib-cage, using firm adhesive. Heart rate was monitored and analyzed using axoscope and clampfit 9.2 software (Molecular Devices)

TRPV2 = target: T5, TRPV2 (Mus musculus, UniProt Q9WTR1); assay: Ca++ imaging in N2a cells over-expressing TRPV2; assay type: cell-based; conditions: 5 μM, mouse isoform in N2a cells
T5 construct: expressed in transfected cells; host or cells: N2a cells, eGFP co-transfected
T5 sequence (Q9WTR1 whole entry, canonical isoform): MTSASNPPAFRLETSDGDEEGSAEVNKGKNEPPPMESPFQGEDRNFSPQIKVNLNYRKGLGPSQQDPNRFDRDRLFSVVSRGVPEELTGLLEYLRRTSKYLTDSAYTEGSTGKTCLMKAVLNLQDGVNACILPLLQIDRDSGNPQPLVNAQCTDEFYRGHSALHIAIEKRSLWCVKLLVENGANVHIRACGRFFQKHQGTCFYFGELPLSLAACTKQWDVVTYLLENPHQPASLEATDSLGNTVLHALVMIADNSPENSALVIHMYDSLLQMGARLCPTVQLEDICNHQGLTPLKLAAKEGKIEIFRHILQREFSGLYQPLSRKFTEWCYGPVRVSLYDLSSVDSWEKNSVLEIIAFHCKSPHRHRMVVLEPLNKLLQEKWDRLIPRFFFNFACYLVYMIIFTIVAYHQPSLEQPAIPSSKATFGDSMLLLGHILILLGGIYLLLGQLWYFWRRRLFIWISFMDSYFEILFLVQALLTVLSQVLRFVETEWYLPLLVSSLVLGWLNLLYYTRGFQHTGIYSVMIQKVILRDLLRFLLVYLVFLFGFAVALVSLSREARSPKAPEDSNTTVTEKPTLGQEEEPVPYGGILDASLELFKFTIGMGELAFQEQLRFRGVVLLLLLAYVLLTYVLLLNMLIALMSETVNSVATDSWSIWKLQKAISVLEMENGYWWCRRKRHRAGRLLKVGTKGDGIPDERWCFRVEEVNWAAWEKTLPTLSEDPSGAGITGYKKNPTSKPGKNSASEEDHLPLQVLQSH
Source text: as §1

human TRPV3 = target: T6, human TRPV3 (Homo sapiens, UniProt Q8NET8); assay: Ca2+ signal in N2a cells transfected with human TRPV3 (camphor); assay type: cell-based; conditions: camphor stimulation
T6 construct: expressed in transfected cells; host or cells: N2a cells
T6 sequence (Q8NET8 whole entry): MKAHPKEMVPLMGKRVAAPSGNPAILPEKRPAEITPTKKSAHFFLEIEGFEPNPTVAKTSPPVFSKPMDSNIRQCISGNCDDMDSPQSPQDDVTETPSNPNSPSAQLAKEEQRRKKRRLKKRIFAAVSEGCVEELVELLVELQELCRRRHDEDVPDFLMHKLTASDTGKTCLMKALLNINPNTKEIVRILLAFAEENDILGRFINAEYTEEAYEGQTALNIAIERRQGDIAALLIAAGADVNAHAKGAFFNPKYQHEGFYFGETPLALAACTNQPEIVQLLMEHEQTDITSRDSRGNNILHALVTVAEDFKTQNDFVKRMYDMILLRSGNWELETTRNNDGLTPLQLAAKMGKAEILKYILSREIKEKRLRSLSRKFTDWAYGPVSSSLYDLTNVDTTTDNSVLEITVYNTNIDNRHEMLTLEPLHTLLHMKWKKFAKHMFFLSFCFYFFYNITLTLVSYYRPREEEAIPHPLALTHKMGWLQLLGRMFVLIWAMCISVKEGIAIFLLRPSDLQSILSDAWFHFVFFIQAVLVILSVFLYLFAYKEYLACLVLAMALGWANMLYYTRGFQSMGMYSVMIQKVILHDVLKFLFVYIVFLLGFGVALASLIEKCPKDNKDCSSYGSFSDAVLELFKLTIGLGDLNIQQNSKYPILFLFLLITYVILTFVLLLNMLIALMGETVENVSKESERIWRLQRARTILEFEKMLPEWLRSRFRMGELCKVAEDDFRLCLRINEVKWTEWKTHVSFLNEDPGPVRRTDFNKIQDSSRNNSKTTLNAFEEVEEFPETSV
Description: as §2

N2a cells = assay: Cell viability (resazurin) of N2a cells; assay type: cell-based; conditions: 48 h; for cellular toxicity vs inhibitory potency against TRPV4/TRPA1, factor: mouse
Description: FIGS. 30A-30B: Cellular toxicity studies of compounds 16-8 and 16-19. N2a cells were subjected to increasing concentrations of compounds 16-8 and 16-19, resulting cell viability was analyzed for the next 48 h. (FIG. 30A) Time course of cell viability in the presence of various concentrations of 16-8. […] Representative result of 2 independent experiments.
N2a cells were cultured in 96 well plates for 24-48 h. Cell viability studies relied on metabolic capability monitored with the indicator dye resazurin. Its reduction to resorufin (indicated by color change dark blue to pink) was monitored over time. Changes in absorbance at λ=570 nm were recorded using a microplate reader (Molecular Devices). […] Eight replicate cultures per experimental point were studied.

T1 sequence (Q8K424 whole entry, canonical isoform): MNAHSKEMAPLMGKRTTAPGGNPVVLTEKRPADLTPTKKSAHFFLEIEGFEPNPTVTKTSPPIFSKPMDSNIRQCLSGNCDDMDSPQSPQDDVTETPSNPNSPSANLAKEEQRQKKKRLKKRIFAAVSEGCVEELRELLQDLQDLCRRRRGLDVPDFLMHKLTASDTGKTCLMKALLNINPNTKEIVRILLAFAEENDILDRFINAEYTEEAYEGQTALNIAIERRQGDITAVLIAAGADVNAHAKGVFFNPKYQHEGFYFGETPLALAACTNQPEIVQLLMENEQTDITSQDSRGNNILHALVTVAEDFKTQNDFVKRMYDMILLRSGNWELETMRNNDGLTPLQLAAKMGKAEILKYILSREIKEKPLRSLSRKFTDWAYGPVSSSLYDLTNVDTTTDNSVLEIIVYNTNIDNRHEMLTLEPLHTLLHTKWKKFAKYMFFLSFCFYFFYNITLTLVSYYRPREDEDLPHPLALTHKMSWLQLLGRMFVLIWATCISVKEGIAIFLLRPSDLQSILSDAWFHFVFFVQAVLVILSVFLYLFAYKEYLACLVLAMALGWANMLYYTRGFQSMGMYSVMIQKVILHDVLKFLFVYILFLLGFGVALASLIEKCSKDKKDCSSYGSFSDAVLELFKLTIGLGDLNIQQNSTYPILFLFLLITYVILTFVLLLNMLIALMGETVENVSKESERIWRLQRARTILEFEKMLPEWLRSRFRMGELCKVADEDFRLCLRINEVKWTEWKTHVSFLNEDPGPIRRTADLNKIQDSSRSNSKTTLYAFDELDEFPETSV

| Structure (SMILES) | inhibition of TRPV3 (TRPV3) | inhibition of TRPV1 (TRPV1) | immediate-phase pain behavior [1] | late-phase pain behavior [1] | effect on Ca2+ transience, TRPV1 (human TRPV1) | effect on Ca2+ transience, TRPV2 (human TRPV2) | heart rate (EKG) [2] | alanine-amino-transferase (ALT) [2] | serum creatinin [2] | inhibition of TRPV2 (TRPV2) | effect on Ca2+ transience, TRPV3 (human TRPV3) | cellular toxicity vs inhibitory potency against TRPV4/TRPA1, factor (N2a cells) | cell viability time course at increasing concentrations (N2a cells) |
| --- | --- | --- | --- | --- | --- | --- | --- | --- | --- | --- | --- | --- | --- |
| CCN(CCc1ccc(Nc2nc(-c3ccccc3)cs2)cc1)Cc1ccccc1 [Compound 16-19] | did not inhibit | did not inhibit | virtually eliminated | significantly reduced | not affected | not affected | did not detect differences and changes in heart rate | not significantly elevated | not significantly elevated | did not inhibit | not affected | 50-100 |  |
| CN(CCc1ccc(Nc2nc(-c3ccccc3)cs2)cc1)Cc1ccccc1 [Compound 16-8] | did not inhibit | did not inhibit | virtually eliminated | strikingly reduced | not affected | not affected | did not detect differences and changes in heart rate | not significantly elevated | not significantly elevated | did not inhibit | not affected | 50-100 | clear reduction at 40 and 80 μM |
